Test results published in patent US9266867B2, “Piperidinyl monocarboxylic acids as S1P1 receptor agonists” (BIOPROJET, priority 2011, dated 2016).
pEC50: −log10 of the molar value. Structures can show the parent of a compound that is named as a salt.

molecular target: EDG-1 (Homo sapiens, UniProt P21453); test: 35S-GTPγS binding assay, EDG1 (S1P1); assay type: biochemical; parameters: expressed in transfected cells; details: Table 1b; read-out: EDG1 EC50
Protocol: a) 35S-GTPγS Binding Assay GTP-γ-^35S binding was performed using […]15 μg protein of cell membranes suspended in 50 mM tris-HCl pH 7.5 containing 10 mM MgCl2, 100 mM NaCl and 10 μM GDP. The radioligand was 0.025 nM [^35S] GTP-γ-S and non specific binding determined in the presence of 10 μM non-radioactive GTP-γ-S. […] The maximal stimulation elicited by S1P was taken as a reference to define full or partial agonism and calculate the intrinsic activity (i.a.) of compounds.

Chain of EDG-1 (P21453 whole entry): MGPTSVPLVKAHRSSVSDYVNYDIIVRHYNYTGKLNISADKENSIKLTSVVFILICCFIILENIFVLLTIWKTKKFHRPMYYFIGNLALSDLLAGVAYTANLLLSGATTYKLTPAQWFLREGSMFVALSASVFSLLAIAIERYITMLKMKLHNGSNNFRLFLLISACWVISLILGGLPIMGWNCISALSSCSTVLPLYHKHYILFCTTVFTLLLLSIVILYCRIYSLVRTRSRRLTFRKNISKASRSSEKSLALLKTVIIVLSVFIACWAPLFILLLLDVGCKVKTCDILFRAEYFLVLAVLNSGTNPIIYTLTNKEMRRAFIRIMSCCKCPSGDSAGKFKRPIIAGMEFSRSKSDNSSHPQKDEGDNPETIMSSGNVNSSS

| Structure (SMILES) | pEC50 |
| --- | --- |
| CC(C)Oc1ccc(-c2nc(-c3ccc(CN4CCC(C)(C(=O)O)CC4)cc3)no2)cc1Cl [Example 44, 1-{4-[5-(3-Chloro-4-isopropoxy-phenyl)-[1,2,4]-oxadiazol-3-yl]-benzyl}-4-methyl-piperidine-4-carboxylic acid tert-butyl amine salt] | > 8.00 |
| CC1(C(=O)O)CCN(Cc2ccc(-c3noc(-c4ccc(C(C)(C)C)c(Cl)c4)n3)cc2)CC1 [Example 45, 1-{4-[5-(4-tert-Butyl-3-chloro-phenyl)-[1,2,4]-oxadiazol-3-yl]-benzyl}-4-methyl-piperidine-4-carboxylic acid tert-butyl amine salt] | > 8.00 |
| CCC1(C(=O)O)CCN(Cc2ccc(-c3noc(-c4ccc(OC(C)C)c(Cl)c4)n3)cc2)CC1 [Example 48, 1-{4-[5-(3-Chloro-4-isopropoxy-phenyl)-[1,2,4]-oxadiazol-3-yl]-benzyl}-4-ethyl-piperidine-4-carboxylic acid tert-butyl amine salt] | > 8.00 |
| COCC1(C(=O)O)CCN(Cc2ccc(-c3noc(-c4ccc(OC(C)C)c(Cl)c4)n3)cc2)CC1 [Example 57, 1-{4-[5-(3-Chloro-4-isopropoxy-phenyl)-[1,2,4]-oxadiazol-3-yl]-benzyl}-4-methoxymethyl-piperidine-4-carboxylic acid tert-butyl amine salt] | > 8.00 |
| CC(C)Cc1ccc(-c2nc(-c3ccc(CN4CCC(COC(C)C)(C(=O)O)CC4)cc3)no2)cc1Cl [Example 60, 1-{4-[5-(3-Chloro-4-isobutyl-phenyl)-[1,2,4]-oxadiazol-3-yl]-benzyl}-4-isopropoxy methyl-piperidine-4-carboxylic acid tert-butyl amine salt] | > 9.00 |
| CC(C)Cc1ccc(-c2nc(-c3ccc(CN4CCC(COC5CCCC5)(C(=O)O)CC4)cc3)no2)cc1Cl [Example 61, 1-{4-[5-(3-Chloro-4-isobutyl-phenyl)-[1,2,4]-oxadiazol-3-yl]-benzyl}-4-cyclopentyloxymethyl-piperidine-4-carboxylic acid tert-butyl amine salt] | > 9.00 |
| CC(C)Cc1ccc(-c2nc(-c3ccc(CN4CCC(Cc5cccs5)(C(=O)O)CC4)cc3)no2)cc1Cl [Example 62, 1-{4-[5-(3-Chloro-4-isobutyl-phenyl)-[1,2,4]-oxadiazol-3-yl]-benzyl}-4-thiophen-2-ylmethyl-piperidine-4-carboxylic acid tert-butyl amine salt] | > 9.00 |
| CC(C)Cc1ccc(-c2nc(-c3ccc(CN4CCC(CC5CC5)(C(=O)O)CC4)cc3)no2)cc1Cl [Example 63, 1-{4-[5-(3-Chloro-4-isobutyl-phenyl)-[1,2,4]-oxadiazol-3-yl]-benzyl}-4-cyclopropylmethyl-piperidine-4-carboxylic acid tert-butyl amine salt] | > 9.00 |
| CC(C)Cc1ccc(-c2nc(-c3ccc(CN4CCC(CCN5CCOCC5)(C(=O)O)CC4)cc3)no2)cc1Cl [Example 64, 1-{4-[5-(3-Chloro-4-isobutyl-phenyl)-[1,2,4]-oxadiazol-3-yl]-benzyl}-4-(2-morpholin-4-yl-ethyl)-piperidine-4-carboxylic acid] | > 8.00 |

Now from value to compound:

| pEC50 | Structure (SMILES) |
| --- | --- |
| > 9.00 | CCCc1ccc(-c2nc(-c3ccc(CN4CCC(C)(C(=O)O)CC4)cc3)no2)cc1Cl [Example 46, 1-{4-[5-(3-Chloro-4-propyl-phenyl)-[1,2,4]-oxadiazol-3-yl]-benzyl}-4-methyl-piperidine-4-carboxylic acid tert-butyl amine salt] |
| > 9.00 | COCCOCC1(C(=O)O)CCN(Cc2ccc(-c3noc(-c4ccc(OC(C)C)c(Cl)c4)n3)cc2)CC1 [Example 47, 1-{4-[5-(3-Chloro-4-isopropoxy-phenyl)-[1,2,4]-oxadiazol-3-yl]-benzyl}-4-(2-methoxy-ethoxymethyl)-piperidine-4-carboxylic acid tert-butyl amine salt] |
| > 9.00 | C=CCC1(C(=O)O)CCN(Cc2ccc(-c3noc(-c4ccc(OC(C)C)c(Cl)c4)n3)cc2)CC1 [Example 49, 4-Allyl-1-{4-[5-(3-chloro-4-isopropoxy-phenyl)-[1,2,4]-oxadiazol-3-yl]-benzyl}-piperidine-4-carboxylic acid tert-butyl amine salt] |
| > 9.00 | O=C(O)C1(Cc2ccccn2)CCN(Cc2ccc(-c3noc(-c4ccc(-c5ccccc5)c(Cl)c4)n3)cc2)CC1 [Example 50, 1-{4-[5-(2-Chloro-biphenyl-4-yl)-[1,2,4]-oxadiazol-3-yl]-benzyl}-4-pyridin-2-ylmethyl-piperidine-4-carboxylic acid tert-butyl amine salt] |
| > 9.00 | COc1ccc(CC2(C(=O)O)CCN(Cc3ccc(-c4noc(-c5ccc(-c6ccccc6)c(Cl)c5)n4)cc3)CC2)cc1 [Example 51, 1-{4-[5-(2-Chloro-biphenyl-4-yl)-[1,2,4]-oxadiazol-3-yl]-benzyl}-4-(4-methoxy-benzyl)-piperidine-4-carboxylic acid tert-butyl amine salt] |
| > 9.00 | O=C(O)C1(Cc2ccc(F)cc2)CCN(Cc2ccc(-c3noc(-c4ccc(-c5ccccc5)c(Cl)c4)n3)cc2)CC1 [Example 52, 1-{4-[5-(2-Chloro-biphenyl-4-yl)-[1,2,4]-oxadiazol-3-yl]-benzyl}-4-(4-fluoro-benzyl)-piperidine-4-carboxylic acid tert-butyl amine salt] |
| > 9.00 | COc1ccc(CC2(C(=O)O)CCN(Cc3ccc(-c4noc(-c5ccc(C6CCCCC6)c(Cl)c5)n4)cc3)CC2)cc1 [Example 53, 1-{4-[5-(3-Chloro-4-cyclohexylphenyl)-[1,2,4]-oxadiazol-3-yl]-benzyl}-4-(4-methoxy-benzyl)-piperidine-4-carboxylic acid tert-butyl amine salt] |
| > 9.00 | CCC1(C(=O)O)CCN(Cc2ccc(-c3noc(-c4ccc(C5CCCCC5)c(Cl)c4)n3)cc2)CC1 [Example 54, 1-{4-[5-(3-Chloro-4-cyclohexylphenyl)-[1,2,4]-oxadiazol-3-yl]-benzyl}-4-ethyl-piperidine-4-carboxylic acid tert-butyl amine salt] |
| > 9.00 | O=C(O)C1(Cc2ccccc2)CCN(Cc2ccc(-c3noc(-c4ccc(-c5ccccc5)c(Cl)c4)n3)cc2)CC1 [Example 55, 4-Benzyl-1-{4-[5-(2-chloro-biphenyl-4-yl)-[1,2,4]-oxadiazol-3-yl]-benzyl}-piperidine-4-carboxylic acid tert-butyl amine salt] |
| > 9.00 | O=C(O)C1(Cc2ccccn2)CCN(Cc2ccc(-c3noc(-c4ccc(C5CCCCC5)c(Cl)c4)n3)cc2)CC1 [Example 56, 1-{4-[5-(3-Chloro-4-cyclohexyl-phenyl)-[1,2,4]-oxadiazol-3-yl]-benzyl}-4-pyridin-2-ylmethyl-piperidine-4-carboxylic acid tert-butyl amine salt] |
| > 9.00 | O=C(O)C1(Cc2cccnc2)CCN(Cc2ccc(-c3noc(-c4ccc(-c5ccccc5)c(Cl)c4)n3)cc2)CC1 [Example 58, 1-{4-[5-(2-Chloro-biphenyl-4-yl)-[1,2,4]-oxadiazol-3-yl]-benzyl}-4-pyridin-3-ylmethyl-piperidine-4-carboxylic acid tert-butyl amine salt] |
| > 9.00 | CCOCCOCC1(C(=O)O)CCN(Cc2ccc(-c3noc(-c4ccc(CC(C)C)c(Cl)c4)n3)cc2)CC1 [Example 59, 1-{4-[5-(3-Chloro-4-isobutyl-phenyl)-[1,2,4]-oxadiazol-3-yl]-benzyl}-4-(2-ethoxy-ethoxymethyl)-piperidine-4-carboxylic acid tert-butyl amine salt] |
